Results: the kinase profiling compilation of Christmann-Franck et al. (2016)

What was measured:
Assay in all cases: KINOMEscan competition binding
Settings in all cases: compound 10.0 µM
ALK (human) = ALK (human) (UniProt Q9UM73)
BMPR1B (human) = BMPR1B (human) (UniProt O00238)
BRSK2 (human) = BRSK2 (human) (UniProt Q8IWQ3)
CAMK1G (human) = CAMK1G (human) (UniProt Q96NX5)
CAMKK1 (human) = CAMKK1 (human) (UniProt Q8N5S9)
CDKL3 (human) = CDKL3 (human) (UniProt Q8IVW4)
CIT (human) = CIT (human) (UniProt O14578)
[1] = system: EGFR (human), P00533 [747-751 del / S ins]
[2] = system: EGFR (human), P00533 [752-759 del]
[3] = system: EGFR (human), P00533 [L858R]
[4] = system: EGFR (human), P00533 [T790M/L858R]
EPHA3 (human) = EPHA3 (human) (UniProt P29320)
EPHA5 (human) = EPHA5 (human) (UniProt P54756)
ERBB2 (human) = ERBB2 (human) (UniProt P04626)
FLT1 (human) = FLT1 (human) (UniProt P17948)
Sequence of FLT1 (human) (P17948 whole entry, looked up): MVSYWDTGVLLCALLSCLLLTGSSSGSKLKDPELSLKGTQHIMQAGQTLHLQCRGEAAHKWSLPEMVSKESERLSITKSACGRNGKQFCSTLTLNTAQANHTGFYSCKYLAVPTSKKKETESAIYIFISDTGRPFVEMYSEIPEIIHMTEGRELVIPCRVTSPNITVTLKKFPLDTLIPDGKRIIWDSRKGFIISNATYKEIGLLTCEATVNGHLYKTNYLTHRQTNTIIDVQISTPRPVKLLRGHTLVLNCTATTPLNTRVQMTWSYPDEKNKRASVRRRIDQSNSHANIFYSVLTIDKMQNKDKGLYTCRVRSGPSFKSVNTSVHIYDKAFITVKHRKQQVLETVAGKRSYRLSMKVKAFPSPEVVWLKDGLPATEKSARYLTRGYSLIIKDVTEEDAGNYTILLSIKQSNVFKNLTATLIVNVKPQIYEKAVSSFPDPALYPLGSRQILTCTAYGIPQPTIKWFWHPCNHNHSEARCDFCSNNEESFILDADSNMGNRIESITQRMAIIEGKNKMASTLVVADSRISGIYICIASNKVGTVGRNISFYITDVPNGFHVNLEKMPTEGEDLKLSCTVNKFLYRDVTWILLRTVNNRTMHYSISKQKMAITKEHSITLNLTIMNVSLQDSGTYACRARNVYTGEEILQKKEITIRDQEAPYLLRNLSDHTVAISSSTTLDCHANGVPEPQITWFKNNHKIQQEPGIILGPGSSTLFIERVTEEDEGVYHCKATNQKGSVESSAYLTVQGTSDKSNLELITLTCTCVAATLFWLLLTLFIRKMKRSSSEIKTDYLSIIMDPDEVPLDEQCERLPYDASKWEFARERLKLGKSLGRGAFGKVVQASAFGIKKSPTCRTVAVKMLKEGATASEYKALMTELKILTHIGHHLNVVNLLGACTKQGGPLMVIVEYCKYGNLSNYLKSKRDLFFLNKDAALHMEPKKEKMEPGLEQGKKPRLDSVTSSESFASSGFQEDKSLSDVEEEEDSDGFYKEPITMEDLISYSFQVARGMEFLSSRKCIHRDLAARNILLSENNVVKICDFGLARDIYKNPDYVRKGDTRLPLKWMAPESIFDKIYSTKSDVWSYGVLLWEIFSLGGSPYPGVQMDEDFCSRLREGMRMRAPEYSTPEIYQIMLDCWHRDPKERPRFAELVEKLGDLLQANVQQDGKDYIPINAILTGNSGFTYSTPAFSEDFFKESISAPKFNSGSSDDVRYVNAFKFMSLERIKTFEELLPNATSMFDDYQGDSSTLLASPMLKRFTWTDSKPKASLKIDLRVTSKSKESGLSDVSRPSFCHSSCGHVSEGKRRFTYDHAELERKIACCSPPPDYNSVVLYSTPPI

FYN (human) = FYN (human) (UniProt P06241)
HIPK2 (human) = HIPK2 (human) (UniProt Q9H2X6)
HIPK3 (human) = HIPK3 (human) (UniProt Q9H422)
IKBKE (human) = IKBKE (human) (UniProt Q14164)
MAK (human) = MAK (human) (UniProt P20794)
Sequence of MAK (human) (P20794 whole entry, looked up): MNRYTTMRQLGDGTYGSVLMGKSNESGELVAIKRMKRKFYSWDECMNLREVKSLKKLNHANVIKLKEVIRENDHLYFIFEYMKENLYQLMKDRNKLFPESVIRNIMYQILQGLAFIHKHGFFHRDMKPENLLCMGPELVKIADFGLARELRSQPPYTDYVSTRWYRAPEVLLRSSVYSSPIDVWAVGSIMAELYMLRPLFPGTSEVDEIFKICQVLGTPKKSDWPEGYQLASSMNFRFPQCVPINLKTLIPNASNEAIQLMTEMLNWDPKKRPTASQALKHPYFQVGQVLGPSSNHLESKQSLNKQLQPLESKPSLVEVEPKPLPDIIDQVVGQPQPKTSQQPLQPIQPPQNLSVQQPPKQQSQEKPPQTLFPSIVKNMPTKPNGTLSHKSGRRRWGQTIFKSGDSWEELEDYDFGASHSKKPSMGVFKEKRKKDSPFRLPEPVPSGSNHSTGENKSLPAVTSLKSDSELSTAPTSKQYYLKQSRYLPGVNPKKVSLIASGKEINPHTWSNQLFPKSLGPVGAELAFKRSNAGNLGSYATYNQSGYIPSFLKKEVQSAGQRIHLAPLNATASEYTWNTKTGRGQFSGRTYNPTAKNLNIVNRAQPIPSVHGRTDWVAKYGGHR

MAP2K6 (human) = MAP2K6 (human) (UniProt P52564)
MAPK10 (human) = MAPK10 (human) (UniProt P53779)
MAPK6 (human) = MAPK6 (human) (UniProt Q16659)
MET (human) = MET (human) (UniProt P08581)
Sequence of MET (human) (P08581 whole entry, looked up): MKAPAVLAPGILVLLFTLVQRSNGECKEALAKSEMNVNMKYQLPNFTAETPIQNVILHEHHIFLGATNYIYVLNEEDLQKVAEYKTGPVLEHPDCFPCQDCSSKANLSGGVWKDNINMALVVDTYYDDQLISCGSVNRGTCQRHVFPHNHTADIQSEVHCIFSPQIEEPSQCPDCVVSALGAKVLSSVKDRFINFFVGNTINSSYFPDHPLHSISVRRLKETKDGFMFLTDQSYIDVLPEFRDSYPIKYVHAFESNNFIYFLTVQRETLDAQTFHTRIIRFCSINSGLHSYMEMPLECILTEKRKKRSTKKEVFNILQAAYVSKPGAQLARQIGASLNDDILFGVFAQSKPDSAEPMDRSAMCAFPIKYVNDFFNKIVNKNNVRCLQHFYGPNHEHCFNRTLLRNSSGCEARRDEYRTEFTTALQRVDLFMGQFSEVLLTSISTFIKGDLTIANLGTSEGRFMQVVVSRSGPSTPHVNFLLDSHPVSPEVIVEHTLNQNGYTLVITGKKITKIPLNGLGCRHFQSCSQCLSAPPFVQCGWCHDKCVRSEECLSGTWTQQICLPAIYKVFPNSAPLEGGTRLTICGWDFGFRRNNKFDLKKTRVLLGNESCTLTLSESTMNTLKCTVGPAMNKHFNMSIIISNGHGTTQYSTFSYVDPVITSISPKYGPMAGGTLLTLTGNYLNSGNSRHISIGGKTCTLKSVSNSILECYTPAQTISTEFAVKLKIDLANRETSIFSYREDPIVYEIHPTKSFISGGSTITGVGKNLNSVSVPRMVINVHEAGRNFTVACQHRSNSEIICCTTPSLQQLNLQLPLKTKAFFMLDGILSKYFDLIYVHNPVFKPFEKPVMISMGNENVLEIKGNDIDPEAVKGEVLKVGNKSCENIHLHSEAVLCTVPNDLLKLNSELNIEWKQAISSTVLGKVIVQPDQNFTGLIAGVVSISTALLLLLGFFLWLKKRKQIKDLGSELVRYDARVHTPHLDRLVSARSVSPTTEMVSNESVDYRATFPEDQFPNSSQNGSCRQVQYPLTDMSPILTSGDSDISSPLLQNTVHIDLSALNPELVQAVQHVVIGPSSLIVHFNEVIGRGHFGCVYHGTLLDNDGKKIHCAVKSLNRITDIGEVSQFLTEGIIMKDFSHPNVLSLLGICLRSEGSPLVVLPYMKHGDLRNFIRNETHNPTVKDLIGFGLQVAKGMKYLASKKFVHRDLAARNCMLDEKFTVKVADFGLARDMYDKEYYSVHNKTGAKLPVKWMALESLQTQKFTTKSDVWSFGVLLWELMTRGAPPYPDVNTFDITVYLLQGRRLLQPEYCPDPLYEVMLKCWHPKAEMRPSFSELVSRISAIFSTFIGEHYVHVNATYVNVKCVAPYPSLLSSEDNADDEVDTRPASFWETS

NIM1 (human) = NIM1 (human) (UniProt Q8IY84)
PDGFRB (human) = PDGFRB (human) (UniProt P09619)
[5] = system: PIK3CA (human), P42336 [E542K]
PIK3CD (human) = PIK3CD (human) (UniProt O00329)
PIM2 (human) = PIM2 (human) (UniProt Q9P1W9)
Sequence of PIM2 (human) (Q9P1W9 whole entry, looked up): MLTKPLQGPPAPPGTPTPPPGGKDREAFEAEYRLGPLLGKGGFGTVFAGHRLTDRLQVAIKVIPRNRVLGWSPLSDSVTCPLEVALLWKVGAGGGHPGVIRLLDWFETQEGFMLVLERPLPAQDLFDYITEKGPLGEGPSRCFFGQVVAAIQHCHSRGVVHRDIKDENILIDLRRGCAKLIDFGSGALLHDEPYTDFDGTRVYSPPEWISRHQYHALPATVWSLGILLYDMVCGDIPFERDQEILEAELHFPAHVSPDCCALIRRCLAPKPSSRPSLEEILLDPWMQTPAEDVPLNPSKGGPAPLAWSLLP

PKN3 (M.tuberculosis) = PKN3 (M.tuberculosis) (UniProt Q6P5Z2)
PLK1 (human) = PLK1 (human) (UniProt P53350)
PRKD2 (human) = PRKD2 (human) (UniProt Q9BZL6)
Sequence of PRKD2 (human) (Q9BZL6 whole entry, looked up): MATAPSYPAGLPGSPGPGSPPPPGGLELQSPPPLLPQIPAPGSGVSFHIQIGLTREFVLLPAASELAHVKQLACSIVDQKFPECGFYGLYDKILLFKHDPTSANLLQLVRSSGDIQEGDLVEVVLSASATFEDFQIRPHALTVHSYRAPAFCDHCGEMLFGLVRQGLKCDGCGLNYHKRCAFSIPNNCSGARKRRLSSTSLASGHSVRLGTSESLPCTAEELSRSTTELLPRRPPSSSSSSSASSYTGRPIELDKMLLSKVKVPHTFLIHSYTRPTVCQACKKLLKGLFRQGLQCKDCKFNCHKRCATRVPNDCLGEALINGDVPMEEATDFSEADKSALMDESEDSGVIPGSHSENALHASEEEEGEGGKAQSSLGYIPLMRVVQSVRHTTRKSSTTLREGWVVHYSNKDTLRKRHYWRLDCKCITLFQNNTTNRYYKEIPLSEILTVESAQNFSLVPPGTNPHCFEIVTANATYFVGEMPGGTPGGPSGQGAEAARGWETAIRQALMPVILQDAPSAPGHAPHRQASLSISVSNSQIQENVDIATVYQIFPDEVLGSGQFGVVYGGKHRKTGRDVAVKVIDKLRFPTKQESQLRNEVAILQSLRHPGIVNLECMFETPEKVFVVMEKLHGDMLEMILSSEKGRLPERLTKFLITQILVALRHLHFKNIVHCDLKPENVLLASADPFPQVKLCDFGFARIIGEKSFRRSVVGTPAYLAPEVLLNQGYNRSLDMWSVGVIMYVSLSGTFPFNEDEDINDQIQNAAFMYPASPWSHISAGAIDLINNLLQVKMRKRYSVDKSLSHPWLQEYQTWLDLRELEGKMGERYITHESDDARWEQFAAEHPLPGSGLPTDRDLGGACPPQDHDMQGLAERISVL

RPS6KA6 KD1 (human) = RPS6KA6 KD1 (human) (UniProt Q9UK32)
SGK3 (human) = SGK3 (human) (UniProt Q96BR1)
SIK2 (human) = SIK2 (human) (UniProt Q9H0K1)
STK36 (human) = STK36 (human) (UniProt Q9NRP7)
STK38 (human) = STK38 (human) (UniProt Q15208)
Sequence of STK38 (human) (Q15208 whole entry, looked up): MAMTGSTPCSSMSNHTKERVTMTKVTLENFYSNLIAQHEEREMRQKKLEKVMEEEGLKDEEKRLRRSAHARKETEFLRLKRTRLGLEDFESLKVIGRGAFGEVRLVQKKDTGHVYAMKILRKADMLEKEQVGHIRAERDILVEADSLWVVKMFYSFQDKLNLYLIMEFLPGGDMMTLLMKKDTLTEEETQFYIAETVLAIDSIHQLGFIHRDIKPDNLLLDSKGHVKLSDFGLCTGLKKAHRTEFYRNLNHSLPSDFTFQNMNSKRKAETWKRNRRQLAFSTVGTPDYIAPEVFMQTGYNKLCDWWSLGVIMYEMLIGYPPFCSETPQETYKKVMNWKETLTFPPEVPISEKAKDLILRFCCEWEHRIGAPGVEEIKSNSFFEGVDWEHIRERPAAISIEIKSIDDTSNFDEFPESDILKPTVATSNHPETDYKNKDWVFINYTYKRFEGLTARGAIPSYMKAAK

TIE1 (human) = TIE1 (human) (UniProt P35590)
TRPM6 (human) = TRPM6 (human) (UniProt Q9BX84)
[6] = biological target: TYK2 JH1 catalytic (human) (UniProt P29597)
ULK3 (human) = ULK3 (human) (UniProt Q6PHR2)

Work on CCC(=O)N1CCN(c2ccc(-n3c(=O)ccc4cnc5ccc(-c6cnc7ccccc7c6)cc5c43)cc2C(F)(F)F)CC1 yielded a kinase still bound, per cent of control (ALK (human)) of 80%, a kinase still bound, per cent of control (BMPR1B (human)) of 100% and a kinase still bound, per cent of control (BRSK2 (human)) of 76%. For the same molecule, the kinase still bound, per cent of control (CAMK1G (human)) was 74%, the kinase still bound, per cent of control (CAMKK1 (human)) was 80% and the per cent of control (CDKL3 (human)) was 92%. For the same molecule, the kinase still bound, per cent of control (CIT (human)) was 59%, the kinase still bound, per cent of control [1] was 80% and the kinase still bound, per cent of control [2] was 84%. It also gave a kinase still bound, per cent of control [3] of 100%, a kinase still bound, per cent of control [4] of 100% and a kinase still bound, per cent of control (EPHA3 (human)) of 70%. It also gave a kinase still bound, per cent of control (EPHA5 (human)) of 100%, a kinase still bound, per cent of control (ERBB2 (human)) of 91% and a kinase still bound, per cent of control (FLT1 (human)) of 79%. It also gave a kinase still bound, per cent of control (FYN (human)) of 49%, a kinase still bound, per cent of control (HIPK2 (human)) of 58% and a kinase still bound, per cent of control (HIPK3 (human)) of 86%. For the same molecule, the kinase still bound, per cent of control (IKBKE (human)) was 87%, the kinase still bound, per cent of control (MAK (human)) was 68% and the kinase still bound, per cent of control (MAP2K6 (human)) was 100%. The kinase still bound, per cent of control (MAPK10 (human)) was 31%, the kinase still bound, per cent of control (MAPK6 (human)) was 1.8% and the kinase still bound, per cent of control (MET (human)) was 84%. For the same molecule, the kinase still bound, per cent of control (NIM1 (human)) was 84%, the kinase still bound, per cent of control (PDGFRB (human)) was 24% and the kinase still bound, per cent of control [5] was 1%. The kinase still bound, per cent of control (PIK3CD (human)) was 51%, the kinase still bound, per cent of control (PIM2 (human)) was 62% and the kinase still bound, per cent of control (PKN3 (M.tuberculosis)) was 64%. For the same molecule, the kinase still bound, per cent of control (PLK1 (human)) was 85%, the kinase still bound, per cent of control (PRKD2 (human)) was 100% and the kinase still bound, per cent of control (RPS6KA6 KD1 (human)) was 66%. For the same molecule, the kinase still bound, per cent of control (SGK3 (human)) was 100%, the kinase still bound, per cent of control (SIK2 (human)) was 23% and the kinase still bound, per cent of control (STK36 (human)) was 17%. It also gave a kinase still bound, per cent of control (STK38 (human)) of 100%, a kinase still bound, per cent of control (TIE1 (human)) of 100% and a kinase still bound, per cent of control (TRPM6 (human)) of 100%. The kinase still bound, per cent of control [6] was 70% and the kinase still bound, per cent of control (ULK3 (human)) was 100%.
Molecule COc1ccc(-c2ccc3c(N4CCOCC4)nc(N4C[C@@H](C)O[C@@H](C)C4)nc3n2)cc1CO has a kinase still bound, per cent of control (ALK (human)) of 100%, a kinase still bound, per cent of control (BMPR1B (human)) of 99% and a kinase still bound, per cent of control (BRSK2 (human)) of 98%. The kinase still bound, per cent of control (CAMK1G (human)) was 94%, the kinase still bound, per cent of control (CAMKK1 (human)) was 100% and the per cent of control (CDKL3 (human)) was 90%. For the same molecule, the kinase still bound, per cent of control (CIT (human)) was 96%, the kinase still bound, per cent of control [1] was 82% and the kinase still bound, per cent of control [2] was 100%. The kinase still bound, per cent of control [3] was 100%, the kinase still bound, per cent of control [4] was 100% and the kinase still bound, per cent of control (EPHA3 (human)) was 90%. It also gave a kinase still bound, per cent of control (EPHA5 (human)) of 94%, a kinase still bound, per cent of control (ERBB2 (human)) of 94% and a kinase still bound, per cent of control (FLT1 (human)) of 92%. For the same molecule, the kinase still bound, per cent of control (FYN (human)) was 96%, the kinase still bound, per cent of control (HIPK2 (human)) was 58% and the kinase still bound, per cent of control (HIPK3 (human)) was 76%. For the same molecule, the kinase still bound, per cent of control (IKBKE (human)) was 100%, the kinase still bound, per cent of control (MAK (human)) was 100% and the kinase still bound, per cent of control (MAP2K6 (human)) was 83%. The kinase still bound, per cent of control (MAPK10 (human)) was 81%, the kinase still bound, per cent of control (MAPK6 (human)) was 84% and the kinase still bound, per cent of control (MET (human)) was 88%. The kinase still bound, per cent of control (NIM1 (human)) was 97%, the kinase still bound, per cent of control (PDGFRB (human)) was 95% and the kinase still bound, per cent of control [5] was 2.8%. It also gave a kinase still bound, per cent of control (PIK3CD (human)) of 0.95%, a kinase still bound, per cent of control (PIM2 (human)) of 100% and a kinase still bound, per cent of control (PKN3 (M.tuberculosis)) of 100%. The kinase still bound, per cent of control (PLK1 (human)) was 55%, the kinase still bound, per cent of control (PRKD2 (human)) was 96% and the kinase still bound, per cent of control (RPS6KA6 KD1 (human)) was 76%. For the same molecule, the kinase still bound, per cent of control (SGK3 (human)) was 100%, the kinase still bound, per cent of control (SIK2 (human)) was 91% and the kinase still bound, per cent of control (STK36 (human)) was 92%. The kinase still bound, per cent of control (STK38 (human)) was 55%, the kinase still bound, per cent of control (TIE1 (human)) was 100% and the kinase still bound, per cent of control (TRPM6 (human)) was 50%. The kinase still bound, per cent of control [6] was 100% and the kinase still bound, per cent of control (ULK3 (human)) was 100%.
